# Counter-ions that a name gives are not always drawn.
# Assays:
# [1] = target: T1, Proton Pump (H^+ /K^+ ATPase) (Oryctolagus cuniculus, UniProt P27112); assay: Inhibition of Proton Pump (H+/K+ ATPase) Activity, in vitro enzyme reaction (Experiment 1); assay type: biochemical, New Zealand white rabbit; settings: for Effect ratio: IC50 of Omeprazole / IC50 of test compound; for IC50: K+-stimulated H+/K+ ATPase activity, rabbit gastric microsomes, pH 7.2, 37° C., 15 min prereaction, 30 min reaction, read-out: IC50 of test compound, inhibition (50%) of the proton pump activity
# T1 construct: The microsomes thus obtained were used as an enzyme source of the in vitro enzyme reaction study of proton pump; from tissue; host or cells: rabbit stomach, mucosal scrapings, microsomes (180,000 g pellet)
# T1 sequence (P27112 whole entry): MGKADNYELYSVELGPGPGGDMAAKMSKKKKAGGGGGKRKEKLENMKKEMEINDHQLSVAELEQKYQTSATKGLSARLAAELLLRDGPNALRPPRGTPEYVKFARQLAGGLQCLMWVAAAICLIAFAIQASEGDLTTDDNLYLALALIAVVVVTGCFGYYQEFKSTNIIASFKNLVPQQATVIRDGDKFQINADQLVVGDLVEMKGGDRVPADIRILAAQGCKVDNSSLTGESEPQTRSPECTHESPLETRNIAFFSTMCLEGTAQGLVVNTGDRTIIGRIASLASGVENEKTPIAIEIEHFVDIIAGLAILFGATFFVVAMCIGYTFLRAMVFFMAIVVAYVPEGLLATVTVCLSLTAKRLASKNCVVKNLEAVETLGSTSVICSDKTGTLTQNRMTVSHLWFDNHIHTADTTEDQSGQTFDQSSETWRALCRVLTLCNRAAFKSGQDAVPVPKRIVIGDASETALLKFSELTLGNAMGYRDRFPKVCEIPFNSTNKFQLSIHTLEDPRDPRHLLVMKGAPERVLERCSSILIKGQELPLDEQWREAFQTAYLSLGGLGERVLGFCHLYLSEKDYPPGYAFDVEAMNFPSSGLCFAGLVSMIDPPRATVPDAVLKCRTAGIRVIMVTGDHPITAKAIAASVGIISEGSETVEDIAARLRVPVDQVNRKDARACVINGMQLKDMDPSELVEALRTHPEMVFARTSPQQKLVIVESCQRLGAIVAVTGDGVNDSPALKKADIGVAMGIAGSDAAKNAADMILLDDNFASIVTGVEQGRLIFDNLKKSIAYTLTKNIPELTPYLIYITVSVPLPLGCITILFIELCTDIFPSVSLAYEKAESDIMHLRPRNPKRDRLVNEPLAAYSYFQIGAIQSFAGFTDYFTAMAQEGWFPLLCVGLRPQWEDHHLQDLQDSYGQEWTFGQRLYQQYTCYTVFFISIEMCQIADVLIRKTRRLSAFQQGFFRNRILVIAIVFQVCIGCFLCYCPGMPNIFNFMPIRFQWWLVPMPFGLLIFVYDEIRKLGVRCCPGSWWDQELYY
# T1 sequence (P18597 whole entry partner): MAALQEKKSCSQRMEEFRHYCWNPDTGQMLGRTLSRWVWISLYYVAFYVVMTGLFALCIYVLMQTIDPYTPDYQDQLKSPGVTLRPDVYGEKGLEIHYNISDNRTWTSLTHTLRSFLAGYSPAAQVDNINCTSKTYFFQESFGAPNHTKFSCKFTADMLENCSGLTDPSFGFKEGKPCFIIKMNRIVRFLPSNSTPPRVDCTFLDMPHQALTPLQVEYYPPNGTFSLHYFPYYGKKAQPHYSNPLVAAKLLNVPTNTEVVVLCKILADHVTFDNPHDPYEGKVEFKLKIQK
# Method: A New Zealand white rabbit was killed by blowing its head and the stomach was taken out. The contents of the stomach were removed and the stomach walls were washed with was saline. The inner wall of the stomach was scratched out with a slide glass and the cells thus obtained were homogenized in 0.25M sucrose buffer by means of a Teflon-glass homogenizer. The homogenous solution was centrifuged at 10,000 g for 10 minutes and the supernatant was further centrifuged at 20,000 g for 20 minutes. The supernatant thus obtained was centrifuged at an ultra-high speed of 180,000 g for 1 hour. The pellets precipitated were collected by discarding the supernatant and suspended in 50 mM Tris-HCl buffer having pH 7.2. The suspension was dialyzed twice with the same buffer(of 1,000 times volume) for 3 hours and stored into liquid nitrogen.
# The above centrifugation and dialysis were carried out at 4° C. The microsomes thus obtained were used as an enzyme source of the in vitro enzyme reaction study of proton pump.
# The inhibitory effects of proton pump activity by the compounds of the present invention were measured by the in vitro enzyme reaction study. The proton pump activity stimulated by Mg^++ was used as a negative comparative group, and the activity stimulated by Mg^++ and K^+ was used as a positive comparative group. The comparative compound was omeprazole.
# Test tubes were divided into 4 groups: Group 1 as negative comparative group(n=3), Group 2 as positive comparative group(n=3), Group 3(n=5) to be administered with the compound of the present invention and Group 4(n=5) to be administered with the comparative compound. The inhibitory effects of proton pump activity of Groups 3 and 4 were measured by employing the compound prepared in Example 34 and omeprazole, respectively, each of which was dissolved in dimethylsulfoxide at 5 different concentrations.
# To each of Groups 1, 2, 3 and 4, were added 0.1 ml of magnesium chloride(40 mM) dissolved in 50 mM Tris-HCl buffer (pH 7.2) and […] of the enzyme source prepared in Experiment 1-1. Then, 0.1 ml of potassium chloride(500 mM) and 0.1 ml of ammonium chloride(100 mM) dissolved in 50 mM Tris-HCl buffer(pH 7.2) were added to all groups except for Group 1.
# 0.1 ml of dimethylsulfoxide was added to each of Groups 1 and 2; and to Group 3 was added 0.01 ml of the solution in which the compound prepared in Example 34 was dissolved in dimethylsulfoxide at 5 different concentrations. To Group 4, 0.01 ml of the solution prepared by dissolving omprazole in dimethylsulfoxide at 5 different concentrations(37.6, 21.4, 12.2, 7.0 and 4.0 μM) was added. 50 mM Tris-HCl buffer was added thereto so as to make the total volume 0.4 ml.
# Thereafter, the test tubes of each Group were placed at 37° C. for 15 minutes for the prereaction. 0.1 ml of ATP solution(33.3 mM), which was prepared by adding Tris-ATP 50 mM to Tris-HCl buffer having pH 7.2, was added until the reaction volume became 0.5 ml. The final concentrations of MgCl2, KCl, NH4 Cl, ATP, enzyme and Tris-HCl were 8 mM, 100 mM, 20 mM, 6.7 mM, 100μg/ml and 50 mM, respectively. After the reaction was carried out at 37° C. for 30 minutes, 25% cold trichloroacetic acid was added to terminate the enzyme reaction. The released inorganic phosphate was measured by an automatic analyzer(SBA 300, Gilford).
# The difference between Group 1 and Group 2 represents the proton pump activity activated by K^+ only. The inhibition percentages of Groups 3 and 4 were calculated from Litchfield-wilcoxon equation[see J. Pharmacol. Exptl. Ther. 96, 99(1949)]. The concentrations of the test compounds which inhibit 50% of the proton pump activity are represented as IC50 in Table 1.
# gastric secretion = assay: Inhibition of Gastric Secretion, pylorus-ligated rats (Experiment 2); assay type: in vivo, Sprague-Dawley rats
# Method: In accordance with the method disclosed in Shay, H., et al., Gastroenterology 5, 43-61(1945), Experiment 2 was carried out.
# Sprague-Dawley rats having a body weight of 170±10 g were divided into 3 groups(n=5) and deprived of food for 24 hours before the experiment with free access to water. Under ether anesthesia, the abdomen was incised, and the pylorus was ligated. As a comparative group, Group 1 was administered intraduodenally in a volume of 0.5 ml/200 g of 30% aqueous polyethylene glycol 400 solution. Groups 2 and 3 were administered intraduodenally with the compound of Example 34 and omeprazole, respectively, each of which was suspended in 30% aqueous polyethylene glycol 400 solution at a concentration of 20 mg/kg. After closing the abdominal cavity, the rats were placed for 5 hours and then killed by cervical dislocation. The stomach was extracted to obtain gastric juice.
# The gastric juice was centrifuged at 1,000 g to remove precipitates. The amount and acidity of the gastric juice were measured. Relative volumes, relative acid concentrations and relative acid outputs of the test compounds were calculated from equations(I), (II) and (III) and the results are shown in Table 2.
# (I) = the average amount of gastric juice of Group 1 - the
# average amount of gastric juice of Group 2)/(the average
# amount of gastric juice of Group 1 - the average amount
# of gastric juice of Group 3)
# Relative acid concentration
# (II) = (the average acidity of Group 1 - the average
# acidity of Group 2)/(the average acidity of Group 1 - the average
# (III) = (the total amount of acid output of Group 1 - the
# total amount of acid output of Group 2)/(the total amount of acid
# output of Group 1 - the total amount of acid output of Group
# [2] = relative to omeprazole (equation III), 20 mg/kg intraduodenally, pylorus-ligated rats, 5 hours
SMILES,Effect ratio [1],IC50 [1] [µM],Relative Acid Output (gastric secretion; [2]),"Relative Acid Output (gastric secretion; intraduodenal, 20 mg/kg, 5 h)"
"Cc1cc(F)ccc1Nc1nc(N2CCc3ccccc3C2C)c2cccc(OCCO)c2n1 (stereo not drawn) [Example 37, 8-(2-Hydroxyethyloxy)-2-(4-Fluoro-2-Methylphenylamino)-4-(1-Methyl-1,2,3,4-Tetrahydroisoquinoline-2-Yl)Quinazoline]",~ 0.60,~12.5,0.37,–
"CCOc1cccc2c(N3CCc4ccccc4C3C)nc(Nc3ccc(F)cc3C)nc12.Cl (stereo not drawn) [Example 38, 2-(4-Fluoro-2-Methylphenyl-Amino)-8-Ethoxy-4-(1-Methyl-1,2,3,4-Tetrahydroisoquinoline-2-Yl)Quinazoline Hydrochloride]",1.67,1.2,0.83,–
"CSCOc1cccc2c(N3CCc4ccccc4C3C)nc(Nc3ccc(F)cc3C)nc12 (stereo not drawn) [Example 39, 2-(4-Fluoro-2-Methylphenyl-Amino-8-(Methylthiomethyloxy)-4-(1-Methyl-1,2,3,4-Tetrahydroisoquinoline-2-Yl)Quinazoline Hydrochloride]",0.70,4,0.57,–
"COc1cccc2c(N3CCc4ccccc4C3C)nc(N(C)c3ccccc3)nc12.Cl (stereo not drawn) [Example 40, 8-Methoxy-2-(N-Methylphenyl-Amino)-4-(1-Methyl-1,2,3,4-Tetrahydroisoquinoline-2-Yl) Quinazoline Hydrochloride]",8.15,1.3,0.82,–
"COc1cccc2c(N3CCc4ccccc4C3C)nc(N(C)c3ccc(F)cc3)nc12.Cl (stereo not drawn) [Example 41, 8-Methoxy-2-(4-Fluoro-N-methyl-Phenylamino)-4-(1-Methyl-1,2,3,4-Tetrahydroisoquinoline-2-Yl)Quinazoline Hydrochloride]",2.00,3.8,0.48,–
"COc1cccc2c(N3CCc4ccccc4C3C(F)(F)F)nc(Nc3ccc(F)cc3C)nc12.Cl (stereo not drawn) [Example 42, 2-(4-Fluoro-2-Methylphenyl-Amino)-8-Methoxy-4-(1-Trifluoromethyl-1,2,3,4-Tetrahydroisoquinoline-2-Yl)Quinazoline Hydrochloride]",< 0.18,12.5,0.42,–
"COc1cccc2c(N3CCc4ccccc4C3CF)nc(Nc3ccc(F)cc3)nc12.Cl (stereo not drawn) [Example 43, 2-(4-Fluorophenylamino)-8-Methoxy-4-(1-Fluoromethyl-1,2,3,4-Tetrahydroisoquinoline-2-Yl)Quinazoline Hydrochloride]",< 0.97,> 12.5,0.76,–
"COc1cccc2c(N3CCc4ccccc4C3CF)nc(Nc3ccc(F)cc3C)nc12.Cl (stereo not drawn) [Example 44, 2-(4-Fluoro-2-Methylphenyl-Amino)-8-Methoxy-4-(1-Fluoromethyl-1,2,3,4-Tetrahydroisoquinoline-2-Yl)Quinazoline Hydrochloride]",~ 0.97,~12.5,0.75,–
"CCC1c2ccccc2CCN1c1nc(Nc2ccc(F)cc2)nc2c(OC)cccc12.Cl (stereo not drawn) [Example 45, 8-Methoxy-2-(4-Fluorophenyl-Amino)-4-(1-Ethyl-1,2,3,4-Tetrahydroisoquinoline-2-Yl) Quinazoline Hydrochloride]",0.46,8.9,–,-0.06
"CCC1c2ccccc2CCN1c1nc(Nc2ccc(F)cc2C)nc2c(OC)cccc12.Cl (stereo not drawn) [Example 46, 8-Methoxy-2-(2-Methyl-4-Fluoro-Phenylamino)-4-(1-Ethyl-1,2,3,4-Tetrahydroisoquinoline-2-Yl)Quinazoline Hydrochloride]",0.68,~6,0.11,–
"COc1cccc2c(N3CCc4ccccc4C3C3CC3)nc(Nc3ccc(F)cc3C)nc12.Cl (stereo not drawn) [Example 47, 2-(4-Fluoro-2-Methylphenyl-Amino)-8-Methoxy-4-(1-cyclopropyl-1,2,3,4-Tetrahydroisoquinoline-2-Yl)Quinazoline Hydrochloride]",0.49,~25,0.33,–
"COc1cccc2c(N3Cc4ccccc4CC3C)nc(Nc3ccc(F)cc3)nc12.Cl (stereo not drawn) [Example 48, 2-(4-Fluorophenylamino)-8-Methoxy-4-(3-Methyl-1,2,3,4-Tetrahydroisoquinoline-2-Yl) Quinazoline Hydrochloride]",~ 0.25,~25,0.76,–
"COc1cccc2c(N3Cc4ccccc4CC3C)nc(Nc3ccc(F)cc3C)nc12.Cl (stereo not drawn) [Example 49, 2-(4-Fluoro-2-Methylphenyl-Amino)-8-Methoxy-4-(3-Methyl-1,2,3,4-Tetrahydroisoquinoline-2-Yl)Quinazoline Hydrochloride]",> 0.25,> 25,0.42,–
"COc1cccc2c(N3CCc4ccccc4C3(C)C)nc(Nc3ccc(F)cc3)nc12.Cl [Example 50, 2-(4-Fluorophenylamino)-8-Methoxy-4-(1,1-Dimethyl-1,2,3,4-Tetrahydroisoquinoline-2-Yl)Quinazoline Hydrochloride]",1.22,6.05,0.82,–
"COc1cccc2c(N3CCc4ccccc4C3(C)C)nc(Nc3ccc(F)cc3C)nc12 [Example 51, 2-(4-Fluoro-2-Methylphenyl-1-Amino)-8-Methoxy-4-(1,1-Dimethyl-1,2,3,4-Tetrahydroisoquinoline-2-Yl)Quinazoline Hydrochloride]",1.21,6.12,0.82,–
"COc1cccc2c(N3CCc4cccc(C)c4C3C)nc(Nc3ccc(F)cc3)nc12.Cl (stereo not drawn) [Example 52, 2-(4-Fluorophenylamino)-8-Methoxy-4-(1,8-Dimethyl-1,2,3,4-Tetrahydroisoquinoline-2-Yl)Quinazoline Hydrochloride]",1.26,7.5,0.79,–
"COc1cccc2c(N3CCc4cccc(C)c4C3C)nc(Nc3ccc(F)cc3C)nc12.Cl (stereo not drawn) [Example 53, 2-(4-Fluoro-2-Methylphenyl-Amino)-8-Methoxy-4-(1,8-dimethyl-1,2,3,4-Tetrahydroisoquinoline-2-Yl)Quinazoline Hydrochloride]",4.75,2,0.92,–

# Reference: patent US5686458A, “Quinazoline deriviates for treating peptic ulcer” (Yuhan Corporation, priority 1992, dated 1997)
